As a reminder, the IC50 is the point on the concentration scale where inhibition reaches its midpoint. Lower therefore signals greater potency. For orientation: EC50 means the concentration giving half of the maximal effect.

The target of experiment [1] is T1, human GHS receptor (Homo sapiens, UniProt Q92847). Put plainly: h bind IC50 (binding assay, Table 1). The note with it: human receptor; Table 1.
The target in experiment [2] is T1, human GHS receptor. Put plainly: Ghrelin IP1 agonist assay (IP1 HTRF). It counts as cell-based. On the set-up: expressed in transfected cells; host or cells: HEK293s. The note with it: for Emax: 2 h, agonist effect as % maximal effect of GHRP-6 (5 μM), read-out: h IP1 ag %; for EC50: HEK293s cells stably expressing human GHS receptor, 2 hours at 37° C., read-out: h IP1 ag EC50. The gist of the method:
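Cells: HEK293s stably expressing human GHS receptor, in stimulation buffer containing 0.02% fatty acid free BSA.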

T1 sequence (Q92847 whole entry): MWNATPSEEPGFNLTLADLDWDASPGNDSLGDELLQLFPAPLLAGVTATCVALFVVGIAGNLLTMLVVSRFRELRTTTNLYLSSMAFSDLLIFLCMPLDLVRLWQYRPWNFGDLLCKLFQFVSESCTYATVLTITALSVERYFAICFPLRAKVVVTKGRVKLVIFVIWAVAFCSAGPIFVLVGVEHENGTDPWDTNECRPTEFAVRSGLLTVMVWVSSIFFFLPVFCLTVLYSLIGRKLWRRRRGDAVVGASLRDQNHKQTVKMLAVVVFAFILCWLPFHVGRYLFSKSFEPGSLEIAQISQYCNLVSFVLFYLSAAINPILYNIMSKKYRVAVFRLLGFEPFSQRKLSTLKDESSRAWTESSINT

Consider `COCC1CCCN1CCS(=O)(=O)c1ccc2nc(NC(=O)NC(=O)c3ccccc3Cl)sc2c1` (stereo not drawn) [Example 36, 2-Chloro-N-[[6-[2-[2-(methoxymethyl)pyrrolidin-1-yl]ethylsulfonyl]benzothiazol-2-yl]carbamoyl]benzamide], for which the IC50 in experiment [1] was found to be 305 nM. In addition, in experiment [2], the Emax was determined as 34.3% and the EC50 is 9.55 nM.

`CCc1ccccc1C(=O)NC(=O)Nc1nc2ccc(S(C)(=O)=O)cc2s1` [Example 141, 2-Ethyl-N-[(6-methylsulfonylbenzothiazol-2-yl)carbamoyl]benzamide] came in with an IC50 in experiment [1] of 111 nM. Further, in experiment [2], the Emax came out at 22.7% and the EC50 amounted to 184 nM.

Regarding `COc1cc(Cl)c(C(=O)NC(=O)Nc2nc3ccc(S(=O)(=O)C4CCN(C)CC4)cc3s2)cc1N1CCOCC1` [Example 255, 2-chloro-4-methoxy-N-(6-(1-methylpiperidin-4-ylsulfonyl)benzo [d]thiazol-2-ylcarbamoyl)-5-morpholino-benzamide], in experiment [1], the IC50 worked out at 7.91 nM. Further, in experiment [2], the Emax came out at 80.9% and the EC50 is not below 20000 nM.

Molecule `CS(=O)(=O)c1ccc2nc(NC(=O)NC(=O)c3cc(-n4ccnc4)ccc3Cl)sc2c1` [Example 69, 2-Chloro-5-(1H-imidazol-1-yl)-N-(6-(methylsulfonyl)benzothiazol-2-ylcarbamoyl)benzamide] came in with an IC50 in experiment [1] of 37.4 nM. For the same molecule, in experiment [2], the Emax was found to be 14.1% and the EC50 was determined as 3010 nM.

`Cc1nc(CS(=O)(=O)c2ccc3nc(NC(=O)NC(=O)c4ccccc4Cl)sc3c2)cs1` [Example 191, 2-Chloro-N-[[6-[(2-methyl-1,3-thiazol-4-yl)methylsulfonyl]benzothiazol-2-yl]carbamoyl]benzamide]: the IC50 in experiment [1] was 128 nM. For the same molecule, in experiment [2], the Emax came out at 15.5% and the EC50 was 75.2 nM.

In experiment [1], `CN1CCN(CCCS(=O)(=O)c2ccc3nc(NC(=O)NC(=O)c4cccc(-n5cccn5)c4Cl)sc3c2)CC1` [Example 240, 2-chloro-N-(6-(3-(4-methylpiperazin-1-yl)propylsulfonyl)benzo[d]thiazol-2-ylcarbamoyl)-3-(1H-pyrazol-1-yl)benzamide] displayed an IC50 of 8.83 nM. Further, in experiment [2], the Emax was found to be 80.9% and the EC50 came out at 28.1 nM.

`Cc1ccc(Cl)c(C(=O)NC(=O)Nc2nc3ccc(S(C)(=O)=O)cc3s2)c1` [Example 65, 2-Chloro-5-methyl-N-(6-(methylsulfonyl)benzothiazol-2-ylcarbamoyl)benzamide] showed an IC50 in experiment [1] of 272 nM. In addition, in experiment [2], the Emax was 8.23% and the EC50 was determined as 81 nM.

For `CN(C)C1CCCN(c2ccc(Cl)c(C(=O)NC(=O)Nc3nc4ccc(S(C)(=O)=O)cc4s3)c2)C1` (stereo not drawn) [Example 268, 2-Chloro-5-(3-dimethylamino-1-piperidyl)-N-[(6-methylsulfonyl-1,3-benzothiazol-2-yl)carbamoyl]benzamide], the IC50 in experiment [1] amounted to 965 nM. In addition, in experiment [2], the Emax is 11.3% and the EC50 was determined as 7320 nM.

In experiment [1], `CCc1ccc(Cl)c(C(=O)NC(=O)Nc2nc3ccc(S(=O)(=O)CCCN4CCN(C)CC4)cc3s2)c1` [Example 226, 2-chloro-5-ethyl-N-(6-(3-(4-methylpiperazin-1-yl)propylsulfonyl)-benzo[d]thiazol-2-ylcarbamoyl)benzamide] displayed an IC50 of 0.05 nM. In experiment [2], the Emax came to 22.3% and the EC50 is 2.19 nM.

`CC(C)(C)OC(=O)N1CCC(Oc2ccc(Cl)c(C(=O)NC(=O)Nc3nc4ccc(S(C)(=O)=O)cc4s3)c2)CC1` [Example 243, tert-butyl 4-(4-chloro-3-(6-(methylsulfonyl)benzo[d]thiazol-2-ylcarbamoyl-carbamoyl)phenoxy) piperidine-1-carboxylate] returned an IC50 in experiment [1] of 14.3 nM. For the same molecule, in experiment [2], the Emax was determined as 7.67% and the EC50 was found to be 9.34 nM.

In turn, `CS(=O)(=O)c1ccc2nc(NC(=O)NC(=O)c3ccccc3[N+](=O)[O-])sc2c1` [Example 104, N-[(6-Methylsulfonylbenzothiazol-2-yl)carbamoyl]-2-nitro-benzamide] gave an IC50 in experiment [1] of 742 nM. In experiment [2], the Emax came to 15.1% and the EC50 is 772 nM.

Regarding `CN1CCC(S(=O)(=O)c2ccc3nc(NC(=O)NC(=O)c4cc(-n5cccn5)c(F)cc4Cl)sc3c2)CC1` [Example 254, 2-chloro-4-fluoro-N-(6-(1-methylpiperidin-4-ylsulfonyl)benzo [d]thiazol-2-ylcarbamoyl)-5-(1H-pyrazol-1-yl)benzamide], the IC50 in experiment [1] turned out to be 5.69 nM. Also, in experiment [2], the Emax was 0% and the EC50 is not below 20000 nM.

In the case of `Cc1ccnn1-c1ccc(Cl)c(C(=O)NC(=O)Nc2nc3ccc(S(C)(=O)=O)cc3s2)c1` [Example 55, 2-Chloro-5-(5-methyl-1H-pyrazol-1-yl)-N-(6-(methylsulfonyl)benzothiazol-2-ylcarbamoyl)benzamide], in experiment [1], the IC50 came to 23.1 nM. In addition, in experiment [2], the Emax amounted to 48.9% and the EC50 came to 5.7 nM.

Turning to `CS(=O)(=O)c1ccc2nc(NC(=O)NC(=O)c3cc(OC4CCNC4)ccc3Cl)sc2c1` (stereo not drawn) [Example 249, 2-chloro-N-(6-(methylsulfonyl)benzo[d]thiazol-2-ylcarbamoyl) 5-(pyrrolidin-3-yloxy)benzamide], the IC50 in experiment [1] was 8080 nM. In experiment [2], the Emax came out at 3.13% and the EC50 is 4900 nM.

Regarding `CC1CN(CCCS(=O)(=O)c2ccc3nc(NC(=O)NC(=O)c4ccccc4Cl)sc3c2)CCN1` (stereo not drawn) [Example 209, 2-Chloro-N-[[6-[3-(3-methylpiperazin-1-yl)propylsulfonyl]benzothiazol-2-yl]carbamoyl]benzamide], the IC50 in experiment [1] turned out to be 12.4 nM. Besides, in experiment [2], the Emax came out at 42.2% and the EC50 amounted to 15.4 nM.

As for `CC(C)NCC(C)(C)S(=O)(=O)c1ccc2nc(NC(=O)NC(=O)c3ccccc3Cl)sc2c1` [Example 225, 2-chloro-N-(6-(1-(isopropylamino)-2-methylpropan-2-ylsulfonyl)benzo[d]thiazol-2-ylcarbamoyl)benzamide], the IC50 in experiment [1] was 60.3 nM. Further, in experiment [2], the Emax is 27.8% and the EC50 came out at 224 nM.

On to `Cc1ccccc1C(=O)NC(=O)Nc1nc2ccc(S(C)(=O)=O)cc2s1` [Example 128, 2-Methyl-N-[(6-methylsulfonylbenzothiazol-2-yl)carbamoyl]benzamide], for which the IC50 in experiment [1] turned out to be 100 nM. In experiment [2], the Emax was 17.3% and the EC50 was 219 nM.

Take `CS(=O)(=O)c1ccc2nc(NC(=O)NC(=O)c3c(F)cccc3Cl)sc2c1` [Example 106, 2-Chloro-6-fluoro-N-[(6-methylsulfonylbenzothiazol-2-yl)carbamoyl]benzamide]: the IC50 in experiment [1] amounted to 216 nM. Further, in experiment [2], the Emax was 12.9% and the EC50 is 32.8 nM.

As to `O=C(NC(=O)c1ccccc1Cl)Nc1nc2ccc(S(=O)(=O)CCNCC3CC3)cc2s1` [Example 34, 2-Chloro-N-[[6-[2-(cyclopropylmethylamino)ethylsulfonyl]benzothiazol-2-yl]carbamoyl]benzamide], the IC50 in experiment [1] turned out to be 99.3 nM. In experiment [2], the Emax stood at 46.7% and the EC50 is 11.1 nM.

Consider `CS(=O)(=O)c1ccc2nc(NC(=O)NC(=O)c3c(Cl)cccc3Cl)sc2c1` [Example 101, 2,6-Dichloro-N-[(6-methylsulfonylbenzothiazol-2-yl)carbamoyl]benzamide], for which the IC50 in experiment [1] worked out at 284 nM. In experiment [2], the Emax was found to be 7.89% and the EC50 worked out at 206 nM.

As for `O=C(NC(=O)c1ccccc1Cl)Nc1nc2ccc(S(=O)(=O)C3CN(CC4CC4)C3)cc2s1` [Example 175, 2-Chloro-N-[[6-[1-(cyclopropylmethyl)azetidin-3-yl]sulfonylbenzothiazol-2-yl]carbamoyl]benzamide], the IC50 in experiment [1] was found to be 64.1 nM. Moreover, in experiment [2], the Emax was found to be 30.1% and the EC50 came to 22.4 nM.

In experiment [1], `CC1CCC(C)N1CCS(=O)(=O)c1ccc2nc(NC(=O)NC(=O)c3ccccc3Cl)sc2c1` (stereo not drawn) [Example 18, 2-Chloro-N-[[6-[2-(2,5-dimethylpyrrolidin-1-yl)ethylsulfonyl]benzothiazol-2-yl]carbamoyl]benzamide] displayed an IC50 of 252 nM. In experiment [2], the Emax came out at 47% and the EC50 amounted to 53.6 nM.

`COCCCS(=O)(=O)c1ccc2nc(NC(=O)NC(=O)c3ccccc3Cl)sc2c1` [Example 192, 2-Chloro-N-[[6-(3-methoxypropylsulfonyl)benzothiazol-2-yl]carbamoyl]benzamide] came in with an IC50 in experiment [1] of 52.4 nM. Moreover, in experiment [2], the Emax was found to be 23.8% and the EC50 stood at 51.3 nM.

In experiment [1], `CC(C)(CN1CCCC1)S(=O)(=O)c1ccc2nc(NC(=O)NC(=O)c3cc(N4CCOCC4)ccc3Cl)sc2c1` [Example 245, 2-chloro-N-(6-(2-methyl-1-(pyrrolidin-1-yl)propan-2-ylsulfonyl)benzo[d]thiazol-2-ylcarbamoyl)-5-morpholino-benzamide] had a concentration for half-maximal inhibition (IC50) of 6.52 nM. In addition, in experiment [2], the Emax turned out to be 0% and the EC50 was not below 20000 nM.

`CC(=O)N1CCC(Oc2ccc(Cl)c(C(=O)NC(=O)Nc3nc4ccc(S(C)(=O)=O)cc4s3)c2)C1` (stereo not drawn) [Example 227, 5-(1-acetylpyrrolidin-3-yloxy)-2-chloro-N-(6-(methylsulfonyl)benzo[d]thiazol-2-ylcarbamoyl)benzamide] showed an IC50 in experiment [1] of 3790 nM. Also, in experiment [2], the Emax came out at 10.6% and the EC50 is not below 20000 nM.

The molecule `O=C(NC(=O)c1ccccc1Cl)Nc1nc2ccc(S(=O)(=O)CCN3CCC3)cc2s1` [Example 13, N-[[6-[2-(Azetidin-1-yl)ethylsulfonyl]benzothiazol-2-yl]carbamoyl]-2-chloro-benzamide] displayed an IC50 in experiment [1] of 162 nM. Further, in experiment [2], the Emax stood at 52.5% and the EC50 stood at 55.5 nM.

For the molecule `COCCNCCS(=O)(=O)c1ccc2nc(NC(=O)NC(=O)c3ccccc3Cl)sc2c1` [Example 2, 2-Chloro-N-[[6-[2-(2-methoxyethylamino)ethylsulfonyl]benzothiazol-2-yl]carbamoyl]benzamide], in experiment [1], the IC50 came out at 13.3 nM. In addition, in experiment [2], the Emax amounted to 40.8% and the EC50 was found to be 17.6 nM.

The values are drawn from patent US20120115845A1, “THERAPEUTIC AGENTS” (priority 2007, published 2012).
